From patent US8889874B2, “Imidazolone-chalcone derivatives as potential anticancer agent and process for the preparation thereof” (Council of Scientific and Industrial Research, priority 2010, dated 2014)
Like-named read-outs stand apart in the source and are kept apart here.

What was measured:
Type in all cases: cell-based, human
[1] = tested on: CNS cancer cell lines; assay: NCI anticancer screen, SRB assay, panel summary; details: for GI50: Homo sapiens
Procedure, shortened: (§1)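 Compounds were tested across fifty three human cancer cell lines from nine tumour types. Each line got a dose-response curve of at least five concentrations at 10-fold dilutions, with continuous drug exposure and sulforhodamine B protein staining to estimate viability or growth.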

[2] = tested on: Non-small cell lung cancer cell lines; assay: NCI anticancer screen, SRB assay, panel summary; details: Homo sapiens
Procedure, shortened: as §1

[3] = tested on: Breast cancer cell lines; assay: NCI anticancer screen, SRB assay, panel summary; details: Homo sapiens
Procedure, shortened: as §1

[4] = tested on: Leukemia cancer cell lines; assay: NCI anticancer screen, SRB assay, panel summary; details: Homo sapiens
Procedure, shortened: as §1

[5] = tested on: Colon cancer cell lines; assay: NCI anticancer screen, SRB assay, panel summary; details: for GI50: Homo sapiens
Procedure, shortened: as §1

[6] = tested on: Ovarian cancer cell lines; assay: NCI anticancer screen, SRB assay, panel summary; details: Homo sapiens
Procedure, shortened: as §1

[7] = tested on: Prostate cancer cell lines; assay: NCI anticancer screen, SRB assay, panel summary
Procedure, shortened: as §1

[8] = tested on: Melanoma cancer cell lines; assay: NCI anticancer screen, SRB assay, panel summary; details: for GI50: Homo sapiens
Procedure, shortened: as §1

[9] = tested on: Renal cancer cell lines; assay: NCI anticancer screen, SRB assay, panel summary; details: Homo sapiens, Renal panel
Procedure, shortened: as §1

[10] = tested on: NCI-H23 (non-small cell lung); assay: NCI anticancer screen, SRB assay, 48 h; details: Homo sapiens
Procedure, shortened: as §1

[11] = tested on: HS 578T (breast); assay: NCI anticancer screen, SRB assay, 48 h; details: Homo sapiens
Procedure, shortened: as §1

[12] = tested on: SK-MEL-28 (melanoma); assay: NCI anticancer screen, SRB assay, 48 h; details: Homo sapiens
Procedure, shortened: as §1

[13] = tested on: MDA-MB-435 (melanoma); assay: NCI anticancer screen, SRB assay, 48 h; details: Homo sapiens
Procedure, shortened: as §1

[14] = tested on: SNB-75 (CNS); assay: NCI anticancer screen, SRB assay, 48 h; details: Homo sapiens
Procedure, shortened: as §1

[15] = tested on: A498 (renal); assay: NCI anticancer screen, SRB assay, 48 h; details: Homo sapiens
Procedure, shortened: as §1

[16] = tested on: TD-47D (breast); assay: NCI anticancer screen, SRB assay, 48 h; details: Homo sapiens
Procedure, shortened: as §1

[17] = tested on: HCC-2998 (colon); assay: NCI anticancer screen, SRB assay, 48 h; details: Homo sapiens
Procedure, shortened: as §1

[18] = tested on: HOP-92 (non-small cell lung); assay: NCI anticancer screen, SRB assay, 48 h; details: Homo sapiens
Procedure, shortened: as §1

[19] = tested on: MDA-MB-231/ATCC (breast); assay: NCI anticancer screen, SRB assay, 48 h; details: Homo sapiens
Procedure, shortened: as §1

[20] = tested on: HOP-62 (non-small cell lung); assay: NCI anticancer screen, SRB assay, 48 h; details: Homo sapiens
Procedure, shortened: as §1

[21] = tested on: NCI-H460 (non-small cell lung); assay: NCI anticancer screen, SRB assay, 48 h; details: Homo sapiens
Procedure, shortened: as §1

[22] = tested on: OVCAR-4 (ovarian); assay: NCI anticancer screen, SRB assay, 48 h; details: Homo sapiens
Procedure, shortened: as §1

[23] = tested on: HCT-116 (colon); assay: NCI anticancer screen, SRB assay, 48 h; details: Homo sapiens
Procedure, shortened: as §1

[24] = tested on: UO-31 (renal); assay: NCI anticancer screen, SRB assay, 48 h; details: Homo sapiens
Procedure, shortened: as §1

[25] = tested on: HCT-15 (colon); assay: NCI anticancer screen, SRB assay, 48 h; details: Homo sapiens
Procedure, shortened: as §1

[26] = tested on: K-562 (leukemia cell line); assay: NCI anticancer screen, SRB assay, 48 h; details: Homo sapiens
Procedure, shortened: as §1

[27] = 48 h exposure, SRB, read-out: GI50
[28] = read-out: pGI50 (-log of molar concentration causing 50% inhibition of net cell growth) (converted)

O=C(/C=C/c1cccc(O)c1)c1cccc(-n2cc(-c3ccccc3)[nH]c2=O)c1 [4a, 1-3-[(E)-3-(3-hydroxyphenyl)-2-propenoyl]phenyl-4-phenyl-2,3-dihydro-1H-2-imidazolone]
mean graph midpoint (MG_MID) of Log10 LC50 ([1]; CNS panel, log of concentration leading to 50% net cell death): 4.60 | GI50 ([1]; CNS panel, log of concentration in mol/L causing 50% inhibition of net cell growth, read-out: mean graph midpoint (MG_MID) of Log10 GI50 (converted)): 5.75 µM | GI50 ([1]; six CNS cancer cell lines, exposure at least 48 hrs, read-out: GI50, range over the panel): 1.61 to 18.2 µM | GI50 ([2]; Non-small cell lung panel, log of concentration in mol/L causing 50% inhibition of net cell growth, read-out: mean graph midpoint (MG_MID) of Log10 GI50 (converted)): 6.92 µM | GI50 ([2]; nine non-small cell lung cancer cell lines, exposure at least 48 hrs, read-out: GI50, range over the panel): 2.49 to 24.8 µM | GI50 ([3]; Breast panel, log of concentration in mol/L causing 50% inhibition of net cell growth, read-out: mean graph midpoint (MG_MID) of Log10 GI50 (converted)): 4.79 µM | LC50 ([3]; Breast panel, log of concentration leading to 50% net cell death, read-out: mean graph midpoint (MG_MID) of Log10 LC50 (converted)): 72.4 µM | GI50 ([3]; five breast cancer cell lines, exposure at least 48 hrs, read-out: GI50, range over the panel): 2.47 to 9.32 µM | GI50 ([4]; Leukemia panel, log of concentration in mol/L causing 50% inhibition of net cell growth, read-out: mean graph midpoint (MG_MID) of Log10 GI50 (converted)): 2.29 µM | LC50 ([4]; Leukemia panel, log of concentration leading to 50% net cell death, read-out: mean graph midpoint (MG_MID) of Log10 LC50 (converted)): ≥ 100 µM | GI50 ([4]; two leukemia cancer cell lines (RPMI-8226 and K-562), exposure at least 48 hrs, read-out: GI50, range over the panel): 2.12 to 3.35 µM | mean graph midpoint (MG_MID) of Log10 LC50 ([5]; Colon panel, log of concentration leading to 50% net cell death): 4.55 | GI50 ([5]; Colon panel, log of concentration in mol/L causing 50% inhibition of net cell growth, read-out: mean graph midpoint (MG_MID) of Log10 GI50 (converted)): 2.75 µM | GI50 ([5]; seven colon cancer cell lines, exposure at least 48 hrs, read-out: GI50, range over the panel): 1.83 to 4.09 µM | GI50 ([6]; Ovarian panel, log of concentration in mol/L causing 50% inhibition of net cell growth, read-out: mean graph midpoint (MG_MID) of Log10 GI50 (converted)): 4.68 µM | LC50 ([6]; Ovarian panel, log of concentration leading to 50% net cell death, read-out: mean graph midpoint (MG_MID) of Log10 LC50 (converted)): 46.8 µM | GI50 ([6]; six ovarian cancer cell lines, exposure at least 48 hrs, read-out: GI50, range over the panel): 2.8 to 11.1 µM | GI50 ([7]; Homo sapiens, log of concentration in mol/L causing 50% inhibition of net cell growth, read-out: mean graph midpoint (MG_MID) of Log10 GI50 (converted)): 2.82 µM | LC50 ([7]; Homo sapiens, log of concentration leading to 50% net cell death, read-out: mean graph midpoint (MG_MID) of Log10 LC50 (converted)): 49 µM | mean graph midpoint (MG_MID) of Log10 TGI ([7]; log of concentration resulting in total inhibition of net cell growth): 4.90 | GI50 ([8]; Melanoma panel, log of concentration in mol/L causing 50% inhibition of net cell growth, read-out: mean graph midpoint (MG_MID) of Log10 GI50 (converted)): 4.47 µM | GI50 ([8]; nine melanoma cancer cell lines, exposure at least 48 hrs, read-out: GI50, range over the panel): 1.85 to 8.26 µM | mean graph midpoint (MG_MID) of Log10 LC50 ([8]; Melanoma panel, log of concentration leading to 50% net cell death): 4.35 | GI50 ([9]; log of concentration in mol/L causing 50% inhibition of net cell growth, read-out: mean graph midpoint (MG_MID) of Log10 GI50 (converted)): 4.17 µM | LC50 ([9]; log of concentration leading to 50% net cell death, read-out: mean graph midpoint (MG_MID) of Log10 LC50 (converted)): 33.9 µM | GI50 [10, 27]: 3.35 µM | GI50 [10, 28]: 3.39 µM | GI50 [11, 27]: 6.14 µM | GI50 [11, 28]: 6.17 µM | GI50 [12, 27]: 5.63 µM | GI50 [12, 28]: 5.62 µM | GI50 [13, 27]: 3.12 µM | GI50 [13, 28]: 3.09 µM | GI50 [14, 27]: 12.1 µM | GI50 [14, 28]: 12 µM | GI50 [15, 27]: 14.3 µM | GI50 [15, 28]: 14.5 µM | GI50 [16, 27]: 4.24 µM | GI50 [16, 28]: 4.27 µM | GI50 [17, 27]: 4.09 µM | GI50 [17, 28]: 4.07 µM | GI50 [18, 27]: 5.04 µM | GI50 [18, 28]: 5.01 µM | GI50 [19, 27]: 3.86 µM | GI50 [19, 28]: 3.89 µM | GI50 [20, 27]: 6.93 µM | GI50 [20, 28]: 6.92 µM | GI50 [21, 27]: 2.49 µM | GI50 [21, 28]: 2.51 µM | GI50 [22, 27]: 5.3 µM | GI50 [22, 28]: 5.25 µM | GI50 [23, 27]: 3.02 µM | GI50 [23, 28]: 3.02 µM | GI50 [24, 27]: 2.16 µM | GI50 [24, 28]: 2.14 µM | GI50 [25, 27]: 3.1 µM | GI50 [25, 28]: 3.09 µM | GI50 ([26]; K562, 48 h exposure, SRB, read-out: GI50): 3.35 µM | GI50 ([26]; K562, read-out: pGI50 (-log of molar concentration causing 50% inhibition of net cell growth) (converted)): 3.39 µM
